Results on 16 compounds are retold here after patent US11142520B2, “LDHA activity inhibitors” (ARCTIC PHARMA AS, priority 2017, dated 2021).

SMILES strings stand for the structures.

The target of assay [1] is T1, LDHA (Homo sapiens (Human), UniProt P00338). The experiment in a line: Coupled diaphorase assay, LDHA. Type of assay: biochemical. Conditions: lactate to pyruvate direction, 4-7 nM LDHA. An excerpt: (§1) The inhibitory properties of the compounds were investigated using a coupled enzyme assay that links the lactate dehydrogenase (LDH) reaction to the production of fluorescent resorutin by diaphorase.
(§2) Human lactate dehydrogenases (LDH) catalyze the reversible interconversion between pyruvate and lactate. LDH is capable of catalyzing both the forward (pyruvate to lactate) and the reverse (lactate to pyruvate) reaction, using either NADH or NAD^+ as a cofactor. The reaction proceeds in either direction dependent on various factors, such as substrate availability, the presence of necessary cofactors, temperature and pH. Different isoforms (LDH A, B, and C) of the enzyme favor different reaction directions—LDHA prefers the conversion from pyruvate to lactate, whereas LDHB preferentially oxidizes lactate to pyruvate.
The coupled assay relies on the oxidation of NAD^+ to NADH throughout the conversion of lactate to pyruvate by LDH (isoforms A, B and C). The produced NADH serves as cofactor in the diaphorase reaction, which reduces non-fluorescent resazurin to fluorescent resorufin. Therefore, the assay indirectly monitors the rate of pyruvate production. Although the consumption of NADH can be directly monitored due to the intrinsic fluorescence of the molecule (excitation: 340 nm, emission: 460 nm) there are problems linked to the direct readout method. […] Shifting the assay to longer wavelengths by coupling the LDH reaction to the conversion of resazurin to fluorescent resorufin by diaphorase reduces this compound interference. The assay direction was thus chosen to provide a robust and reliable assay. […]
Compounds were tested in duplicates using 2-fold, 3-fold or 4-fold serial dilutions including 11 individual concentrations, starting from 5000 μM to 30 μM. […] The controls allowed for the calculation of the percentage inhibition for each data point. […] Enzyme solution leading to final concentrations of 4-7 nM LDHA or 6 nM LDHB, as well as 0.2 U/ml diaphorase in the reaction well was dispensed into 384-well plates (Greiner bio-one) using a CyBi®-SELMA robotic pipettor. Compound dilutions and the enzyme were incubated for at least 20 min at room temperature. […] The reaction was quenched by the addition of a stop solution (final concentrations: 20 mM EDTA, 400 mM NaCl, 40 mM pyruvate). Fluorescence was read out after 5 min of incubation at an excitation wavelength of 560 nm and an emission wavelength of 590 nm on a Perkin Elmer Victor X plate reader. […]
(§3) Fluorescence data was normalized to DMSO and inhibition controls resulting in percentage inhibition for every compound concentration. Dose response curves were fitted in KaleidaGraph (www.synergy.com) or Dotmatics software package (www.dotmatics.com) using a standard 4-parameter fit (Levenberg-Marquardt fitting procedure), resulting in IC50 values for the test compounds.

The next assay deals with LDHB (Homo sapiens (Human), UniProt P07195). The experiment in a line: Coupled diaphorase assay, LDHB. The settings on record: lactate to pyruvate direction, 6 nM LDHB. Type of assay: biochemical.
LDHB, sequence (P07195 whole entry): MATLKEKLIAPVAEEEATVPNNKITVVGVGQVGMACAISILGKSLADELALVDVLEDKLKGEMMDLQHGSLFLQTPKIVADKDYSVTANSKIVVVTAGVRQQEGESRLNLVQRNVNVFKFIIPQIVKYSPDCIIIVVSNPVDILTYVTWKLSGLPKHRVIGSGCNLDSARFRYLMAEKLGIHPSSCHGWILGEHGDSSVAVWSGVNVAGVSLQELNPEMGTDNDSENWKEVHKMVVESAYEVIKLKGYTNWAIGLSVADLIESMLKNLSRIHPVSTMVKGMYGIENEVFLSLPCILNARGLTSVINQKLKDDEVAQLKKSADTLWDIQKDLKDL
Excerpt: as §1, §2
The coupled assay relies on the oxidation of NAD^+ to NADH throughout the conversion of lactate to pyruvate by LDH (isoforms A, B and C). The produced NADH serves as cofactor in the diaphorase reaction, which reduces non-fluorescent resazurin to fluorescent resorufin. Therefore, the assay indirectly monitors the rate of pyruvate production. Although the consumption of NADH can be directly monitored due to the intrinsic fluorescence of the molecule (excitation: 340 nm, emission: 460 nm) there are problems linked to the direct readout method. […] Shifting the assay to longer wavelengths by coupling the LDH reaction to the conversion of resazurin to fluorescent resorufin by diaphorase reduces this compound interference. The assay direction was thus chosen to provide a robust and reliable assay.
Applying the LDHA reaction in the preferred direction for the conversion of pyruvate to lactate under oxidation of NADH to NAD^+ would necessitate running the LDHA reaction to about 80% completion and adding the diaphorase assay reagents afterwards in order to avoid enzyme competition for NADH.
The controls allowed for the calculation of the percentage inhibition for each data point. […] Enzyme solution leading to final concentrations of 4-7 nM LDHA or 6 nM LDHB, as well as 0.2 U/ml diaphorase in the reaction well was dispensed into 384-well plates (Greiner bio-one) using a CyBi®-SELMA robotic pipettor. Compound dilutions and the enzyme were incubated for at least 20 min at room temperature. […] The reaction was quenched by the addition of a stop solution (final concentrations: 20 mM EDTA, 400 mM NaCl, 40 mM pyruvate). Fluorescence was read out after 5 min of incubation at an excitation wavelength of 560 nm and an emission wavelength of 590 nm on a Perkin Elmer Victor X plate reader. […]
as §3

The target in assay [2] is T1, LDHA. The experiment in a line: Isothermal titration calorimetry (ITC). Type of assay: binding. The settings on record: 25° C., NADH 1 mM. Here is the method: ITC experiments were performed using a MicorCal PEAQ ITC instrument. Prior to the experiments, LDHA was dialyzed against 50 mM potassium phosphate buffer pH 7.4, 150 mM NaCl, 0.002% pluronic acid F-127 at 4° C. overnight using mini dialysis kits from GE Healthcare. The tested compounds were dissolved to 100 mM in DMSO. After dialysis, the protein was centrifuged at 14,000 rpm at 4° C. for 30 min. Buffer and MilliQ water for the reference cell were degassed prior to use. Protein concentration was determined by A280 nm measurements using a Nanodrop. All ITC experiments were conducted at 25° C. with stirring at 750 rpm. In a typical experiment the compound of interest was loaded into the sample cell at 20 μM and LDHA (200 μM in syringe) was titrated to the compound solution in consecutive injections. NADH (1 mM) and DMSO concentrations (2%) were matched in all solutions. Data were analyzed using the MicroCal PEAQ-ITC analysis software and fitted to a single site binding model, resulting in binding constant Kd, enthalpy ΔH, entropy ΔS and the stoichiometry N.

Assay [3] concerns MIA PaCa-2 human pancreatic cells. Conditions: MIA PaCa-2 cells; cited from earlier work.
Another assay deals with LDH. Conditions: in vitro; cited from earlier work.

Turning to `O=C1CC(c2ccsc2)(c2cccc(OCC3CCCC3)n2)NC(=O)C1Sc1ccc(F)cc1Cl` (stereo not shown) [Example 3, 3-[(2-chloro-4-fluorophenyl)sulfanyl]-6-[6-(cyclopentylmethoxy)pyridin-2-yl]-6-(thiophen-3-yl)piperidine-2,4-dione], the 50% inhibitory concentration (IC50) at LDHA [1] is 0.5 to 10 µM. The IC50 on LDHB is > 100 µM. Moreover, on LDHA [2], the “-TΔS” value was found to be 5.11 kcal/mol, the Kd turned out to be 0.373 µM, the “N (stoichiometry)” value is on record as 0.721 and the ΔH is -3.68 kcal/mol.

Turning to `CC(C)COC(=O)OC1=C(Sc2ccc(F)cc2Cl)C(=O)NC(c2ccc(N3CCOCC3)cc2)(c2ccsc2)C1` (stereo not shown) [Example 32, 5-((2-chloro-4-fluorophenyl)thio)-2-(4-morpholinophenyl)-6-oxo-2-(thiophen-3-yl)-1,2,3,6-tetrahydropyridin-4-yl iso-butyl carbonate], the IC50 at LDHA [1] and at LDHB was > 100 µM each time.

With `CCOc1cccc(C2(c3ccsc3)CC(=O)C(Sc3ccc(F)cc3Cl)C(=O)N2)n1` (stereo not shown) [Example 4, 3-((2-chloro-4-fluorophenyl)thio)-6-(6-ethoxypyridin-2-yl)-6-(thiophen-3-yl)piperidine-2,4-dione], the IC50 was 10 to 50 µM on LDHA [1] and > 100 µM at LDHB.

Consider `O=C1CC(c2ccc(N3CCOCC3)cc2)(c2ccsc2)NC(=O)C1Sc1cc(Cl)ccc1Cl` (racemic) [Example 10, 3-((2,5-dichlorophenyl)thio)-6-(4-morpholinophenyl)-6-(thiophen-3-yl)piperidine-2,4-dione], for which the 50% inhibitory concentration (IC50) at LDHA [1] lay in the range of 0.1 to 0.5 µM. Moreover, at LDHA [2], the “-TΔS” value was found to be 0.944 kcal/mol; the affinity, expressed as Kd, was 0.0432 µM; the “N (stoichiometry)” value is on record as 0.796; the ΔH was -11 kcal/mol.

As to `O=C1CC(c2ccsc2)(c2cccc(OCC3CCCC3)n2)NC(=O)C1Sc1ccc(Cl)cc1Cl` (stereo not shown) [Example 1, 6-[6-(cyclopentylmethoxy)pyridin-2-yl]-3-[(2,4-dichlorophenyl)sulfanyl]-6-(thiophen-3-yl)piperidine-2,4-dione], the values for the IC50 on LDHA [1] and on LDHB were 10 to 50 µM and > 100 µM, respectively.

On to `O=C1CC(c2ccc(N3CCOCC3)cc2)(c2ccsc2)NC(=O)C1Sc1ccc(F)cc1Cl` (stereo not shown) [Example 8, 3-((2-chloro-4-fluorophenyl)thio)-6-(4-morpholinophenyl)-6-(thiophen-3-yl)piperidine-2,4-dione], for which the IC50 on LDHA [1] and on LDHB was 0.1 to 0.5 µM each time.

Consider `O=C1CC(c2ccsc2)(c2cccc(OCC3CCCC3)n2)NC(=O)C1Sc1cc(Cl)ccc1Cl` (stereo not shown) [Example 5, 6-[6-(cyclopentylmethoxy)pyridin-2-yl]-3-[(2,5-dichlorophenyl)sulfanyl]-6-(thiophen-3-yl)piperidine-2,4-dione], for which the IC50 at LDHA [1] lay in the range of 0.1 to 0.5 µM. At LDHA [2], the “-TΔS” value came to 4.06 kcal/mol; the affinity, expressed as Kd, was 0.671 µM; the “N (stoichiometry)” value was 0.548; the ΔH is -4.35 kcal/mol.

With `O=C1CC(c2ccsc2)(c2cccc(Br)n2)NC(=O)C1Sc1ccc(F)cc1Cl` (stereo not shown) [Example 2, 6-(6-bromopyridin-2-yl)-3-[(2-chloro-4-fluorophenyl)sulfanyl]-6-(thiophen-3-yl)piperidine-2,4-dione], the IC50 at LDHA [1] is 10 to 50 µM; on LDHB it was > 100 µM.

`O=C1CC(c2ccc(N3CCOCC3)cc2)(c2ccsc2)NC(=O)C1Sc1ccccc1Cl` (stereo not shown) [Example 24, 3-((2-chlorophenyl)thio)-6-(4-morpholinophenyl)-6-(thiophen-3-yl)piperidine-2,4-dione]: in assay [3], the “time of continuous LDHA inhibition until cell death occurred” value was ≥ 2 days.

Turning to `NC(=O)C(=O)O` [Oxamate], in the assay on LDH, the “concentration range that inhibits LDH enzyme activity” value is recorded as “mM range”.

Take `O=C1CC(c2ccc(N3CCOCC3)cc2)(c2ccsc2)NC(=O)C1Sc1ccc(Cl)cc1Cl` (stereo not shown) [Example 29, 3-((2,4-dichlorophenyl)thio)-6-(4-morpholinophenyl)-6-(thiophen-3-yl)piperidine-2,4-dione]: the IC50 on LDHA [1] was 50 to 100 µM; on LDHB, > 100 µM.

Take `CCOC(=O)OC1=C(Sc2ccc(F)cc2Cl)C(=O)NC(c2ccsc2)(c2cccc(OCC3CCCC3)n2)C1` (stereo not shown) [Example 11, 5-[(2-chloro-4-fluorophenyl)sulfanyl]-2-[6-(cyclopentylmethoxy)pyridin-2-yl]-6-oxo-2-(thiophen-3-yl)-1,2,3,6-tetrahydropyridin-4-yl ethyl carbonate]: the IC50 at LDHA [1] and at LDHB was > 100 µM each time.

On to `CCOC(=O)OC1=C(Sc2cccc(Cl)c2Cl)C(=O)NC(c2ccc(N3CCOCC3)cc2)(c2ccsc2)C1` (stereo not shown) [Example 15, 5-((2,3-dichlorophcnyl)thio)-2-(4-morpholinophenyI)-6-oxo-2-(thiophcn-3-yl)-1,2,3,6-tetrahydropyridin-4-yl ethyl carbonate], for which the results for the IC50 at LDHA [1] and at LDHB were 50 to 100 µM and > 100 µM, respectively.

Regarding `O=C1CC(c2ccsc2)(c2ccccn2)OC(=O)C1Sc1ccccc1Cl` (stereo not shown) [Example 20, 3-((2-chlorophenyl)thio)-6-(pyridin-2-yl)-6-(thiophen-3-yl)dihydro-2H-pyran-2,4(3H)-dione], the IC50 on LDHA [1] and at LDHB was 0.5 to 10 µM in each case.

Take `O=C1CC(c2ccsc2)(c2cccc(OCC3CCCC3)n2)NC(=O)C1Sc1cccc(Cl)c1Cl` (stereo not shown) [Example 7, 6-[6-(cyclopentylmethoxy)pyridin-2-yl]-3-[(2,3-dichlorophenyl)sulfanyl]-6-(thiophen-3-yl)piperidine-2,4-dione]: the IC50 at LDHA [1] was 10 to 50 µM; at LDHB, > 100 µM.

As for `COCCOC(=O)OC1=C(Sc2ccc(F)cc2Cl)C(=O)NC(c2ccc(N3CCOCC3)cc2)(c2ccsc2)C1` (stereo not shown) [Example 33, 5-((2-chloro-4-fluorophenyl)thio)-2-(4-morpholinophenyl)-6-oxo-2-(thiophen-3-yl)-1,2,3,6-tetrahydropyridin-4-yl (2-methoxyethyl) carbonate], the IC50 on LDHA [1] is 0.5 to 10 µM; on LDHB, > 100 µM.

Usually IC50 stands for the concentration that gives 50% inhibition. By Kd is commonly meant the constant that tells how readily two partners part at equilibrium. Read a high Kd as a looser complex.
